The source of these data is US9598401B2, “Substituted heteroaryl compounds and methods of use thereof” (Sunshine Lake Pharma Co., Ltd., priority 2013, dated 2017).

Each structure is given as a SMILES string.

One experiment has as its target 5-HT1A receptor (Homo sapiens (Human), UniProt P08908). The experiment can be described thus: Affinity for human 5-HT1A receptor ([3H]8-OH-DPAT binding, HEK-293 cell homogenates).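 Further: Filter-retained radioactivity counted by scintillation, non-specific binding defined with 10 µM 8-OH-DPAT, Ki derived from percent inhibition of specific radioligand binding versus control.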 The following applies: read-out: Ki, binding affinity for 5-HT1A receptor; 0.3 nM [3H]8-OH-DPAT, human HEK-293 cell homogenates, 22° C., 60 minutes.
The next experiment concerns the target dopamine D2S receptor (Homo sapiens (Human), UniProt P14416). The experiment can be described thus: Affinity for human dopamine D2S receptor ([3H]methyl-spiperone binding). The note with it: 0.3 nM [3H]methyl-spiperone, cell membrane homogenates, 22° C., 60 minutes.
For the next experiment, the target named is serotonin transporter (Rattus norvegicus (Rat), UniProt P31652). As to the kind of experiment: Inhibitory effect on [3H]5-HT uptake in rat synaptosome. The class given is biochemical. The note with it: rat brain synaptosomes, 37° C., 15 minutes, 0.1 μCi [3H]5-HT. The procedure: The synaptosomes (150 μg) prepared from the rat brain were incubated at 37° C. for 15 minutes with 0.1 μCi [^3H]5-HT in the absence or presence of the test compound or the reference compound in a buffer solution containing 106.2 mM NaCl, 4.5 mM KCl, 2.25 mM MgSO4, 1.08 mM NaH2PO4, 22.5 mM NaHCO3, 9.9 mM glucose, 9 μM EGTA and 45 μM ascorbic acid (pH 7.4).
Inhibition of serotonin transporter in rat synaptosome was measured by the concentrations of [^3H]5-HT.

Chain of serotonin transporter (P31652 whole entry): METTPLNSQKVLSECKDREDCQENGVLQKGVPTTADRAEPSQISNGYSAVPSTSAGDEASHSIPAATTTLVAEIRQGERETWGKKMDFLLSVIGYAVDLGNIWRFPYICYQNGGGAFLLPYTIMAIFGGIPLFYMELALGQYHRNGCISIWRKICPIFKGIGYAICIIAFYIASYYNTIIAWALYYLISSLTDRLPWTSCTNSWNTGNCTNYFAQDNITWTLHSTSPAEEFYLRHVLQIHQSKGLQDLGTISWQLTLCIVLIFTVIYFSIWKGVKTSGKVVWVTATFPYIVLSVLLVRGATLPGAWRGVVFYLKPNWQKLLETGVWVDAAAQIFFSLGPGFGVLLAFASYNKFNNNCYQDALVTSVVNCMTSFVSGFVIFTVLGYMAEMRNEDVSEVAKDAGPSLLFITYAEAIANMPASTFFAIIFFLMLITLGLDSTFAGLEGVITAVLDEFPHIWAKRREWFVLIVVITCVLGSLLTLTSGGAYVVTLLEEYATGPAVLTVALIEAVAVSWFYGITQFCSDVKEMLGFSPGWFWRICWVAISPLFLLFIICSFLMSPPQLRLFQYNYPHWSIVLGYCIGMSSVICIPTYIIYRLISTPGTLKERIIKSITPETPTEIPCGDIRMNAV
Chain of dopamine D2S receptor (P14416 other isoform, or with tags, fused parts or gaps): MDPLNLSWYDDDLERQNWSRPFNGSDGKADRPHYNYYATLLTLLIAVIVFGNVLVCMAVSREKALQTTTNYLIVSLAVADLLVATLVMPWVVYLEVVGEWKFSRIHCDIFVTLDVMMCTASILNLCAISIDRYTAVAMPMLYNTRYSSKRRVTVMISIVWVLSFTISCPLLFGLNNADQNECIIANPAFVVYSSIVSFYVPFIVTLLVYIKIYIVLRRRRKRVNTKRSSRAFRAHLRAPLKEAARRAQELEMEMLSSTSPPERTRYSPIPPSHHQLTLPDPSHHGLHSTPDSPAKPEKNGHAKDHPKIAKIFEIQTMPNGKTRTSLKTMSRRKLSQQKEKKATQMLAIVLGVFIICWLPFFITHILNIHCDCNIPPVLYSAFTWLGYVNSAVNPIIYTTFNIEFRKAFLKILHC
Chain of 5-HT1A receptor (P08908 whole entry): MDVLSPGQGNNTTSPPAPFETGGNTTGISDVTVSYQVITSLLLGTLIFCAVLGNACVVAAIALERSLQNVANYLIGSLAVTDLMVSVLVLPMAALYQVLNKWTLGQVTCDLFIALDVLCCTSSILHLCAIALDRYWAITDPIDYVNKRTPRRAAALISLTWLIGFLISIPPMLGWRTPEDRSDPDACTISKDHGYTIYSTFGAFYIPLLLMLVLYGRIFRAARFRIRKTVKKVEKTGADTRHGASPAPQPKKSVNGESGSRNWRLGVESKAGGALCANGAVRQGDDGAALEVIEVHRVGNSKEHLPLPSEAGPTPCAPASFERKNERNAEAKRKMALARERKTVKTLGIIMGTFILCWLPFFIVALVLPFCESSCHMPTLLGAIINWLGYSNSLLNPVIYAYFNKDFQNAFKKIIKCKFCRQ
Description for 5-HT1A receptor: The non-specific binding value was determined by incubating the same mixture in the presence of 10 μM 8-OH-DPAT, which was used as the standard reference compound and tested in each experiment at several concentrations to obtain a competition curve.
Following the incubation, the samples were filtered rapidly under vacuum through glass fiber filter (GF/B, Packard) presoaked with 0.3% PEI and rinsed several times with ice-cold 50 mM Tris-HCl using a 96-sample cell harvester (Unifilter, Packard). The filters were dried and the retained radioactivity was measured in a scintillation counter (Topcount, Packard) using a scintillation cocktail (Microscint 0, Packard). The experimental results were expressed as a percent inhibition of the control radioligand specific binding, and Ki was the inhibition constant.
Description for dopamine D2S receptor: Cell membrane homogenates (24 μg protein) were incubated at 22° C. for 60 minutes with 0.3 nM [3H]methyl-spiperone in the absence or presence of the test compound in a buffer solution containing 50 mM Tris-HCl (pH 7.4), 120 mM NaCl, 5 mM KCl, 5 mM MgCl2 and 1 mM EDTA.
The non-specific binding value was determined by incubating the same mixture in the presence of 10 μM (+)butaclamol.
Following the incubation, the samples were filtered rapidly under vacuum through glass fiber filter (GF/B, Packard) presoaked with 0.3% PEI and rinsed several times with ice-cold 50 mM Tris-HCl using a 96-sample cell harvester (Unifilter, Packard). The filters were dried and the retained radioactivity was measured in a scintillation counter (Topcount, Packard) using a scintillation cocktail (Microscint 0, Packard).
The experimental results were expressed as a percent inhibition of the control radioligand specific binding, and Ki was the inhibition constant. The standard reference compound was (+)butaclamol, which was tested in each experiment at several concentrations to obtain a competition curve from which its IC50 was calculated, and then Ki value was calculated by ChengPrusoff equation.

For the compound `COc1cc(OC)nc(N2CCN(CCCCc3c[nH]c4ccc(F)cc34)CC2)n1` [Example 4, 3-(4-(4-(4,6-Dimethoxypyrimidin-2-yl)piperazin-1-yl)butyl)-5-fluoro-1H-indole], the results for the Ki at 5-HT1A receptor and at dopamine D2S receptor were 2.8 nM and 110 nM, respectively. The IC50 (usually the concentration at which inhibition is half-maximal) against serotonin transporter was determined as 6.4 nM.

On to `COc1cc(OC)nc(N2CCN(CCCc3c[nH]c4ccc(C#N)cc34)CC2)n1` [Example 10, 3-(3-(4-(4,6-Dimethoxypyrimidin-2-yl)piperazin-1-yl)propyl)-1H-indole-5-carbonitrile], for which the Ki (usually the equilibrium dissociation constant of an inhibitor or competing ligand from its target) on 5-HT1A receptor is 1.3 nM; at dopamine D2S receptor it was 200 nM. At serotonin transporter, this compound yielded an IC50 of 3.6 nM.

Take `Cc1cc(C)nc(N2CCN(CCCc3c[nH]c4ccccc34)CC2)n1` [Example 16, 3-(3-(4-(4,6-Dimethylpyrimidin-2-yl)piperazin-1-yl)propyl)-1H-indole]: the Ki on 5-HT1A receptor is 4.1 nM; at dopamine D2S receptor it was 110 nM. For the same compound, on serotonin transporter, half-maximal inhibition (IC50) required 53 nM.

Take `N#Cc1ccc2[nH]cc(CCCN3CCN(c4nccc(C#N)n4)CC3)c2c1` [Example 26, 3-(3-(4-(4-Cyanopyrimidin-2-yl)piperazin-1-yl)propyl)-1H-indole-5-carbonitrile]: the values for the Ki on 5-HT1A receptor and on dopamine D2S receptor were 8 nM and 190 nM, respectively. For the same compound, the IC50 against serotonin transporter turned out to be 2.6 nM.

In the case of `NC(=O)c1ccnc(N2CCN(CCCCc3c[nH]c4ccc(F)cc34)CC2)n1` [Example 27, 2-(4-(4-(5-Fluoro-1H-indol-3-yl)butyl)piperazin-1-yl)pyrimidine-4-carboxamide], the Ki on 5-HT1A receptor is 60 nM; at dopamine D2S receptor, > 1000 nM. In addition, at serotonin transporter, the IC50 was 2.7 nM.

`N#Cc1ccc2[nH]cc(CCCCN3CCN(c4nccc(C(N)=O)n4)CC3)c2c1` [Example 28, 2-(4-(4-(5-Cyano-1H-indol-3-yl)butyl)piperazin-1-yl)pyrimidine-4-carboxamide]: the results for the Ki at 5-HT1A receptor and on dopamine D2S receptor were 10 nM and 310 nM, respectively. Besides, inhibition at serotonin transporter was half-maximal at 1 nM (IC50).

As to `NC(=O)c1ccnc(N2CCN(CCCc3c[nH]c4ccc(F)cc34)CC2)n1` [Example 29, 2-(4-(3-(5-Fluoro-1H-indol-3-yl)propyl)piperazin-1-yl)pyrimidine-4-carboxamide], the Ki amounted to 12 nM on 5-HT1A receptor and 230 nM at dopamine D2S receptor. On serotonin transporter, this compound registered an IC50 of 1.4 nM.

As to `N#Cc1ccc2[nH]cc(CCCN3CCN(c4nccc(C(N)=O)n4)CC3)c2c1` [Example 30, 2-(4-(3-(5-Cyano-1H-indol-3-yl)propyl)piperazin-1-yl)pyrimidine-4-carboxamide], the Ki is 14 nM at 5-HT1A receptor and > 1000 nM at dopamine D2S receptor. At serotonin transporter, this compound gave an IC50 of 0.75 nM.

As to `CCOC(=O)c1sc(N2CCN(CCCCc3c[nH]c4ccc(F)cc34)CC2)nc1C` [Example 37, Ethyl 2-(4-(4-(5-fluoro-1H-indol-3-yl)butyl)piperazin-1-yl)-4-methylthiazole-5-carboxylate], the Ki turned out to be 5.5 nM at 5-HT1A receptor and 130 nM at dopamine D2S receptor. The same compound registered an IC50 at serotonin transporter of 7 nM.

Consider `CCOC(=O)c1sc(N2CCN(CCCc3c[nH]c4ccc(F)cc34)CC2)nc1C` [Example 38, Ethyl 2-(4-(3-(5-fluoro-1H-indol-3-yl)propyl)piperazin-1-yl)-4-methylthiazole-5-carboxylate], for which the Ki came out at 0.27 nM on 5-HT1A receptor and 270 nM at dopamine D2S receptor. The compound further returned an IC50 against serotonin transporter of 11 nM.

As for `CCOC(=O)c1sc(N2CCN(CCCc3c[nH]c4ccc(C#N)cc34)CC2)nc1C` [Example 40, Ethyl 2-(4-(3-(5-cyano-1H-indol-3-yl)propyl)piperazin-1-yl)-4-methylthiazole-5-carboxylate], the Ki on 5-HT1A receptor was 0.3 nM; at dopamine D2S receptor, > 1000 nM. Further, the midpoint of inhibition on serotonin transporter, the IC50, lay at 3.5 nM.

With `Cc1nc(N2CCN(CCCCc3c[nH]c4ccc(F)cc34)CC2)sc1C(N)=O` [Example 41, 2-(4-(4-(5-Fluoro-1H-indol-3-yl)butyl)piperazin-1-yl)-4-methylthiazole-5-carboxamide], the Ki came out at 23 nM on 5-HT1A receptor and 140 nM at dopamine D2S receptor. Moreover, half-maximal inhibition at serotonin transporter (IC50) required 2.4 nM.

As to `Cc1nc(N2CCN(CCCc3c[nH]c4ccc(F)cc34)CC2)sc1C(N)=O` [Example 42, 2-(4-(3-(5-Fluoro-1H-indol-3-yl)propyl)piperazin-1-yl)-4-methylthiazole-5-carboxamide], the figures for the Ki on 5-HT1A receptor and at dopamine D2S receptor were 4.5 nM and 310 nM, respectively. The compound also registered an IC50 on serotonin transporter of 5.3 nM.

On to `Cc1nc(N2CCN(CCCc3c[nH]c4ccc(C#N)cc34)CC2)sc1C(N)=O` [Example 44, 2-(4-(3-(5-Cyano-1H-indol-3-yl)propyl)piperazin-1-yl)-4-methylthiazole-5-carboxamide], for which the Ki on 5-HT1A receptor was 3.7 nM; at dopamine D2S receptor, > 1000 nM. In addition, it took 4.3 nM to reach half-maximal inhibition at serotonin transporter (IC50).

In the case of `Cc1nc(N2CCN(CCCCc3c[nH]c4ccc(F)cc34)CC2)sc1C#N` [Example 45, 2-(4-(4-(5-Fluoro-1H-indol-3-yl)butyl)piperazin-1-yl)-4-methylthiazole-5-carbonitrile], the results for the Ki at 5-HT1A receptor and at dopamine D2S receptor were 14 nM and > 1000 nM, respectively. Also, the IC50 against serotonin transporter was 8.3 nM.

Take `Cc1nc(N2CCN(CCCc3c[nH]c4ccc(F)cc34)CC2)sc1C#N` [Example 46, 2-(4-(3-(5-Fluoro-1H-indol-3-yl)propyl)piperazin-1-yl)-4-methylthiazole-5-carbonitrile]: the figures for the Ki at 5-HT1A receptor and on dopamine D2S receptor were 4.2 nM and > 1000 nM, respectively. Moreover, the IC50 on serotonin transporter was determined as 18 nM.

With `Cc1nc(N2CCN(CCCCc3c[nH]c4ccc(C#N)cc34)CC2)sc1C#N` [Example 47, 2-(4-(4-(5-Cyano-1H-indol-3-yl)butyl)piperazin-1-yl)-4-methylthiazole-5-carbonitrile], the Ki was found to be 5 nM at 5-HT1A receptor and 130 nM at dopamine D2S receptor. The compound further had an IC50 on serotonin transporter of 1.5 nM.
